Data taken from PMC11160895 (Research Square, 2024).

Experiments:
TCR4 = experiment: SPR binding of TCR4 to peptide/HLA-A3 complexes, 4 °C; conditions: HBS-EP pH 7.4, gp100 presented by HLA-A2 as irrelevant negative control
Method: To help ensure the stability of the samples, we also performed the experiments at the reduced temperature of 4 °C.
Affinities and binding kinetics were measured via surface plasmon resonance using a Biacore T200 instrument. […] The s3–4 scTv was employed as a positive control and the irrelevant Tax11–19/HLA-A*02:01 or gp100/HLA-A*02:01 complexes as a negative control. […] Experiments were performed at either 4 °C or 25 °C as indicated with a blank activated and deactivated flow cell as reference. Binding affinities were determined by fitting the curve of the reference-subtracted steady-state responses against the injected protein concentrations to a 1:1 binding model in OriginPro 2024. For measurements of dissociation rates, experiments were performed at 4 °C. TCRs or the s3–4 scTV were immobilized to approximately 300 RU on a CM5 Series S sensor chip with peptide/MHC complexes injected at a flow rate of 100 μL/min. The dissociation rate (koff) of a TCR-pMHC binding was determined by fitting the dissociation phase of the sensorgram to a single exponential decay function in OriginPro 2024. The association rate (kon) was calculated from the ratio of measured koff and the separately measured KD at 4 °C using kon=koff/KD.

neoantigen-specific TCRs = conditions: cited from earlier work
Text: The slight change in the position of the side chain in the complex with TCR3 distorts the geometry of this interaction, although the side chain is still embedded in a complex electrostatic environment with structur ...

HLA-A3 [1] = biological target: T1, HLA-A3 (Homo sapiens, UniProt P04439); conditions: fluorescence anisotropy, position 5 5-carboxyfluorescein-lysine peptide, 100 nM complex + 100 μM unlabeled peptide, 20 mM NaH2PO4, 75 mM NaCl, pH 7.4; cited from earlier work
Text: (§1) Anticipating lengthy NMR data collection times, we first verified the stability of the peptide/HLA-A3 complexes.

HLA-A3 [2] = biological target: T1, HLA-A3; experiment: Peptide dissociation from HLA-A3 by fluorescence anisotropy; conditions: 100 nM labeled complex + 100 μM unlabeled peptide, pH 7.4
Method: as §1
Fluorescence anisotropy measurements for peptide dissociation were performed as previously described ([15]). […] Changes in anisotropy were recorded as a function of time.

T cells expressing TCR4 = experiment: T cell degranulation CD107a, TCR4-transduced T cells co-cultured with HLA-A3+ antigen presenting cells; conditions: peptide concentrations as high as 10 μM
Method: The peptide specificity of TCR-transduced T cells was assessed by intracellular cytokine staining (ICS) using the BD Cytofix/CytoPerm Plus Kit, following manufacturer’s instructions. Cos-7 cells were electroporated with 100 μg/mL of HLA-A*03:01 mRNA and plated into 96-well round-bottom plates overnight. […] Cells were washed with 1x PBS to remove any unbound peptide. […] Cells were washed with 1×PBS and then fixed and permeabilized for 15 minutes at 4 °C. […] All antibodies were used at a final concentration of 5 μg/mL. Finally, cells were washed with perm-wash buffer, suspended in 2% FBS in PBS and acquired on an X20 LSR Fortessa flow cytometer with the BD FACSDiva software.

HLA-A3 [3] = biological target: T1, HLA-A3; experiment: 19F NMR of 5F-Trp6 peptides bound to HLA-A3; design: the extracellular domain of the MHC heavy chain, β2-microglobulin, TCR α and β chains, and the s3–4 scTv were overexpressed in E coli; made in house
Method: ^19F NMR spectra were recorded using Bruker 600 MHz NMR instrument with a QCI cryogenic probe at NMRFAM, University of Wisconsin-Madison. […] To obtain similar sensitivities on the two samples at different concentrations, the total acquisition times of the 1D experiments in Figs. 7A–F in were set to approximately 12 hours and 33 hours, accordingly. The spectra were acquired in 4-hour blocks interleaved with proton 1D recordings to verify sample stability. For the data in Extended Data Figs. 6D,E total acquisition times were 20 minutes for both complexes. Probe temperature was maintained at a calibrated value of 5.2 °C. Once all blocks were recorded, they were checked individually for frequency drift, which was not detected, and combined to obtain combined datasets with improved signal/noise ratio. The reference frequency of the ^19F channel was set through internal routines of the Topspin acquisition software after the NMR spectrometer was locked on D2O. […] To improve the signal/noise ratio, we compared recording of ^19F 1D spectra with and without proton decoupling. […] We also optimized a recycle delay for the fluorine 1D experiment and determined that 1 s was the optimal time. Therefore, D1 of 0.4 s was used with AQ of 0.59 s. Line shape deconvolution was performed using Mestrelab MNova NMR. Free induction decays were processed with an exponential window function, Fourier- transformed, and baseline corrected prior to fitting with Lorentzian line shapes. CEST experiments were performed by applying 10–40 μW irradiation on a proton channel at a desired ppm position for 0.4 s. The total acquisition time for each CEST dataset was 2 hours. The bandwidth of the saturation pulse was directly measured on a free peptide sample by varying the saturation ppm position around the sharp peptide peak. The direct effect of the pre-saturation pulse was found detectable within +/− 0.5 ppm from the irradiation position. Exchange Spectroscopy (EXSY) experiments were performed with 50 ms mixing time. […] Data were collected in four six-hour blocks that were combined for processing.

- binding to TCR4 (detection) (TCR4): No binding was detectable
- stability of peptide/HLA-A3 complex at 25 °C (HLA-A3 [2]): markedly less stable
- number of 19F peaks of the complex by line shape fitting (HLA-A3 [3]; 5F-Trp6 peptide/HLA-A3 complex, 5 °C): at least eight
Sequence: AHHGGWTTK [WT peptide, wild-type PIK3CA counterpart peptide presented by HLA-A3]
- recognition by multiple neoantigen-specific TCRs (neoantigen-specific TCRs): unable to recognize the WT peptide/HLA-A3 complex
- stability of peptide/HLA-A3 complex at 37 °C (HLA-A3 [1]): markedly less stable
- T cell stimulation (CD107a) (T cells expressing TCR4): no stimulation was evident
- conformational exchange (CEST) (HLA-A3 [3]; 5F-Trp6 peptide/HLA-A3 complex, 5 °C, EXSY consistent): all the peaks were in exchange except for the peak at −125.12 ppm
- stability of complex on storage (19F NMR) (HLA-A3 [3]; approximately 11 months at 4 °C, 5F-Trp6 peptide/HLA-A3): significant increase in the resonance at −125.12 ppm
